What was measured:
[1] = test system: A549; test: Cytotoxicity against human A549 cells after 72 hrs by sulforhodamine B dye assay; format: functional, cell-based; conditions: A549, 72 h
[2] = test system: P388; test: Cytotoxicity against mouse P388 cells after 48 hrs by tetrazolium-formazan method; format: functional, cell-based; conditions: P388, 48 h

Row | Compound | IC50 [1] [nM] | IC50 [2] [nM]
1 | CN(C)CCCN1C(=O)c2cccc3c2c(cc2nc(N)sc23)C1=O | 772 | 1230
2 | CN(C)CCN1C(=O)c2cccc3cc4ncsc4c(c23)C1=O | 39.8 | 83.9
3 | CN(C)CCNc1nc2cc3cccc4c3c(c2s1)C(=O)N(CCN(C)C)C4=O | 30.6 | 8.31
4 | CN(C)CCN1C(=O)c2cccc3c2c(cc2nc(N)sc23)C1=O | 500 | 1030
5 | CN(C)CCN1C(=O)c2cccc3cc4nc(Cl)sc4c(c23)C1=O | 88 | 18.5
6 | CN(C)CCN1C(=O)c2cccc3cc4nc(O)sc4c(c23)C1=O | 45 | 52.5
7 | CN(C)CCN1C(=O)c2cccc3cc4nc(N)sc4c(c23)C1=O | 0.8 | 5
8 | CN(C)CCCN1C(=O)c2cccc3cc4nc(N)sc4c(c23)C1=O | 21.8 | 294

— ChEMBL document CHEMBL1139791, “Highly efficient antitumor agents of heterocycles containing sulfur atom: linear and angular thiazonaphthalimides against human lung cancer cell in vitro” (Bioorg Med Chem, 2007)
